Tests used:
leukemia cell line HL-60 = assay: MTS cell viability assay in HL-60; type: cell-based; settings: HL-60, 0.1-20 μM, 72 hours
Method: (§1) Specifically, cells were attached to 96 well plates for 24 hours, and then treated with the indazole derivatives for 72 hours. Thereafter, the cells were chromogenized with MTS for 4 hours, and the absorbance was measured at 490 nm using a Spectramax Plus384 microplate analyzer. The significance between the control group and the experimental group was verified using an unpaired Students t-test (*p<0.01; DMSO control vs indazole series).
(§2) In addition to the breast cancer cell line, a leukemia cell line HL-60, a liver cancer cell line HepG2, a colorectal cancer cell line HCT116, a prostate cancer cell line Du145, an ovarian cancer cell line SKOV3, and non-small cell lung cancer cell lines NCI-H1299 and A549 were treated with compound 11k (formula 1-7) at concentrations of 0 (DMSO), 0.1, 0.5, 1, 2, 5, 10, and 20 μM, respectively, for 72 hours, and then cell viability was measured using the MTS assay technique as explained by the description of Experimental Example 1. The significance between the control group and the experimental group was verified using an unpaired Students t-test (*p<0.01; DMSO control vs compound 11k).

[1] = system: liver cancer cell line HepG2; assay: MTS cell viability assay in HepG2; type: cell-based; settings: HepG2, 0.1-20 μM, 72 hours
Method: as §1, §2

[2] = system: colorectal cancer cell line HCT116; assay: MTS cell viability assay in HCT116; type: cell-based; settings: HCT116, 0.1-20 μM, 72 hours
Method: as §1, §2

[3] = system: prostate cancer cell line Du145; assay: MTS cell viability assay in Du145; type: cell-based; settings: Du145, 0.1-20 μM, 72 hours
Method: as §1, §2

[4] = system: ovarian cancer cell line SKOV3; assay: MTS cell viability assay in SKOV3; type: cell-based; settings: SKOV3, 0.1-20 μM, 72 hours
Method: as §1, §2

[5] = system: non-small cell lung cancer cell line NCI-H1299; assay: MTS cell viability assay in NCI-H1299; type: cell-based; settings: NCI-H1299, 0.1-20 μM, 72 hours
Method: as §1, §2

[6] = system: non-small cell lung cancer cell line A549; assay: MTS cell viability assay in A549; type: cell-based; settings: A549, 0.1-20 μM, 72 hours
Method: as §1, §2

[7] = system: JIMT-1 breast cancer cell line xenograft; assay: Tumor growth in JIMT-1 xenograft mouse model, combination with paclitaxel; type: in vivo, Balb/c nude mice
Method: This experiment was performed in an in vivo environment using a xenograft mouse model transplanted with the JIMT-1 breast cancer cell line.
6-week-old mice (Balb/c nude mice) were purchased and raised in an environment where they could freely access food and water. The mice were acclimated for more than 7 days, and then were transplanted with tumor cells. Tumor cells were injected subcutaneously into the mammary gland tissue of JIMT-1 breast cancer cells at a density of 3×10^6 cells/mL per individual, and when the tumor reached a size of 50 to 100 mm^3, the indazole derivative of the present disclosure was administered intraperitoneally, and the tumor growth was measured.

[8] = Toxicity in JIMT-1 xenograft mice, combination with paclitaxel (body weight, AST, ALT, BUN); type: in vivo, Balb/c nude mice; settings: combination study

In the case of `COc1c(C(=O)Nc2ccc3c(C)nn(CCC4CCN(C)CC4)c3c2)ccc2c1C=CC(C)(C)O2` [compound 11k, 5-Methoxy-2,2-dimethyl-N-(3-methyl-1-(2-(1-methylpiperidin-4-yl)ethyl)-1H-indazol-6-yl)-2H-chromene-6-carboxamide], the cell viability (leukemia cell line HL-60) is reported as “effective in inhibiting cell viability”, the cell viability [1] is reported as “effective in inhibiting cell viability” and the cell viability [2] is reported as “effective in inhibiting cell viability”. The cell viability [3] was “effective in inhibiting cell viability”, the cell viability [4] was “effective in inhibiting cell viability” and the cell viability [5] was “effective in inhibiting cell viability”. The cell viability [6] was “effective in inhibiting cell viability”, the tumor weight ([7]; measured after tumor resection) was 500 mg and the tumor volume ([7]; measured at 40 days after drug administration) was 786.392 mm^3. For the same molecule, the “AST and ALT levels, BUN assay” value ([8]; blood of the mouse model) was “levels similar to those of the control group” and the body weight [8] was “remained unchanged”.

Source: patent US20260167629A1, “NOVEL INDAZOLE DERIVATIVE OR PHARMACEUTICALLY ACCEPTABLE SALT THEREOF, AND USE THEREOF” (KOREA UNIVERSITY RESEARCH AND BUSINESS FOUNDATION, priority 2022, published 2026)
